What was measured:
c-Kit(V654A) = target: T1, c-Kit(V654A) (Homo sapiens, UniProt P10721, V654A); test: c-Kit(V654A) assay (33P-ATP filter binding kinase assay); assay type: biochemical; details: recombinant human c-Kit aa 544-end V654A, ATP 200 μM
T1 construct: recombinant human c-Kit, amino acids 544-end containing the V654A mutation; GST (N)
In short: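 Radiometric filter-binding read-out: substrate 33P incorporation counted by scintillation after P30 filtermat washes in 75 mM phosphoric acid and methanol. Enzyme: N-GST recombinant human c-Kit aa 544-end carrying V654A.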

[1] = target: T2, GIST430/654 cell line expressing mutated constitutively active cKIT receptor tyrosine kinase (Δ560-576 deletion and V654A point mutation) (Homo sapiens, UniProt P10721, DEL560-576/V654A); test: Cellular cKIT autophosphorylation (phospho-Y307-cKIT, Luminex bead assay) in GIST430/654 cells; assay type: cell-based; details: compounds 45 min, read-out: GIST 430/654 IC50
T2 construct: endogenous in cells; host or cells: GIST430/654 cells
In short: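 GIST430 (Δ560-576) and imatinib-resistant GIST430/654 (plus V654A; grown with 100 nM imatinib) cells were plated in IMDM/15% FCS and treated next day with serially diluted compound for 45 min. Lysates were captured on anti-total-cKIT Luminex beads overnight at 4 °C and probed for phospho-Y307. IC50 was taken from percent of 0.3% DMSO control.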

[2] = target: T3, GIST430 cell line expressing constitutive active cKIT receptor tyrosine kinase (Δ560-576 deletion) (Homo sapiens, UniProt P10721, DEL560-576); test: Cellular cKIT autophosphorylation (phospho-Y307-cKIT, Luminex bead assay) in GIST430 cells; assay type: cell-based; details: cKIT autophosphorylation, GIST430 cells, compounds 45 min; read-out: GIST 430 IC50
T3 construct: endogenous in cells; host or cells: GIST430 cells
Description: Assay Principle for Cellular Testing of cKIT Mutant Inhibitors
The GIST430 cell line expressing constitutive active cKIT receptor tyrosine kinase (Δ560-576 deletion) and the Imatinib resistant GIST430/654 cell line expressing mutated constitutively active cKIT receptor tyrosine kinase (Δ560-576 deletion and V654A point mutation) were employed for assessing cellular potency of compounds. Cellular activity of mutant cKIT was determined by the degree of cKIT autophosphorylation at tyrosine 307 using a Luminex-based bead assay. GIST430 cells were plated with 22,000 cells per well of a 96-well plate in 100 μl medium (85% IMDM/15% FCS) and GIST430/654 cells were plated with 25,000 cells per well of a 96-well plate in 100 μl medium (85% IMDM/15% FCS supplemented with 100 nM Imatinib). At the following day compounds were added in a serial dilution for 45 min. Then, cells were lysed with 90 μl lysis buffer (20 mM Hepes pH 7.5, 200 mM NaCl, 1.5 mM MgCl2×6H2O, 0.4 mM EDTA, 1% Triton-X-100, 1% Phosphatase-Inhibitor II, 20 mM β-Glycerolphosphat, 0.1% Protease-Inhibitor Cocktail III, 0.01% Benzonase) and lysates were cleared by centrifugation through a 96-well filter plate (0.65 μm). Samples were incubated with Luminex-beads which were coupled with an anti-total cKIT antibody overnight at 4° C. under gentle agitation. For detection of phospho-Y307-cKIT a phosphospecific antibody and a species-specific PE-labeled secondary antibody were added. The amount of phospho-Y307-cKIT was determined in a Luminex 200 instrument measuring 100 events per well within 60 seconds.
Counts from samples treated with compounds were calculated as percent of control from solvent treated (0.3% DMSO) samples. Dose-response curves were fitted and IC50 values were determined using Genedata Screener software.

[3] = Determination of Efflux-Ratio (ER) in Caco-2 cells; details: human, Caco-2, pH 7.4
Description: Determination of Efflux-Ratio (ER) in Caco-2 Cells
The efflux ratio of the test compounds was determined in Caco-2 human epithelial colorectal adenocarcinoma cell line (TC7 clone) using calculation of apparent permeability (Papp). Cell monolayers were differentiated in vitro for 14 days before the experiment. Subsequently, the test compound (in HBSS pH 7.4 at 1 μM final concentration) was applied on the donor side while HBSS buffer (pH 7.4) was added to the receiver wells. […] The plate was then incubated in a 5% CO2 incubator (37° C., 100% humidity). At the end of the 2 hours incubation period, 50 μL sample was removed from both donor and receiver wells and diluted 1:1 with equal volumes of acetonitrile for LC-MS/MS analysis. The LC-MS/MS analysis used a one-point calibration method from a 1 μM standard solution diluted 1:1 with equal volume of acetonitrile (consistent to the test samples).
The data was used to calculate the apparent permeabilities of the compounds in both apical to basolateral (Papp,AB) and basolateral to apical (Papp,BA) directions at 1 μM concentration in duplicate. The Papp values were calculated from the concentrations in the donor and receiver compartments using the following formula:
Efflux ratio was calculated according to the following formula:

T3 sequence (P10721 with tags, fused parts or gaps DEL560-576): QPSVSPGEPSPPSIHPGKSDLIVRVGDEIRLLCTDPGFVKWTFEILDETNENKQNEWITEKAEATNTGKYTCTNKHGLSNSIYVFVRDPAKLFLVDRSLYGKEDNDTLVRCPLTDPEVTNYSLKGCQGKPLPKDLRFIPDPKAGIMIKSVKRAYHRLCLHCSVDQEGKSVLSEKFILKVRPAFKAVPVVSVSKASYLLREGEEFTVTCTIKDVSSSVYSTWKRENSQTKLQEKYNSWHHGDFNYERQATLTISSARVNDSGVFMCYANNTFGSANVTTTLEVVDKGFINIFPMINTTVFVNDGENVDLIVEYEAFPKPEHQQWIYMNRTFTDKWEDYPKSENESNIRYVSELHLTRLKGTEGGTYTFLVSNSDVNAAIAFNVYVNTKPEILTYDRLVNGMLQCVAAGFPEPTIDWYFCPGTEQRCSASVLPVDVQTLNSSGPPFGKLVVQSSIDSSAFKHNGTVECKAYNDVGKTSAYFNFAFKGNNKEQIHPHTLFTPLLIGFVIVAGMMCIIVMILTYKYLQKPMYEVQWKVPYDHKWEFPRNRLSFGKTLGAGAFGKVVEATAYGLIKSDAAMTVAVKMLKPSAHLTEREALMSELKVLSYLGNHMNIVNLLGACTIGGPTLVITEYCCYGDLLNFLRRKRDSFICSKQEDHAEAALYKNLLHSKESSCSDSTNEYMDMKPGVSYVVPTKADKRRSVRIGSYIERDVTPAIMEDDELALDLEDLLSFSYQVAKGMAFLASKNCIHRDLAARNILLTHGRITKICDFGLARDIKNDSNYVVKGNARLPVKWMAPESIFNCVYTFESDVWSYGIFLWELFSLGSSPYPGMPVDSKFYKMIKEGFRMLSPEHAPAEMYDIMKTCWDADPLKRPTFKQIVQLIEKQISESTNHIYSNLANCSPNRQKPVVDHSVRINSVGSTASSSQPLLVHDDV
T1 sequence (P10721 544-976 V654A): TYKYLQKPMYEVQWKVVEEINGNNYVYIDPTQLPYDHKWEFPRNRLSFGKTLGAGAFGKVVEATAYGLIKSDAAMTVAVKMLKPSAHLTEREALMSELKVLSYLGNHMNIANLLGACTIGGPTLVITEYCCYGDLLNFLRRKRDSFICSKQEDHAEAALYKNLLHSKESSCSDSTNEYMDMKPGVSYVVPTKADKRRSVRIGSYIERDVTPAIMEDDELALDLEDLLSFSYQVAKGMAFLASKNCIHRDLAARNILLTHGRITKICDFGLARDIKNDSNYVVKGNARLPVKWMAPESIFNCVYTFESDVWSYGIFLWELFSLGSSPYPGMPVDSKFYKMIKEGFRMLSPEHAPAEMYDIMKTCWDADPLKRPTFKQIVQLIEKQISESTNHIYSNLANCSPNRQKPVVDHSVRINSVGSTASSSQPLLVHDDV
T2 sequence (P10721 with tags, fused parts or gaps DEL560-576/V654A): as the sequence (P10721 with tags, fused parts or gaps DEL560-576) above, with V612A counted along it

| IC50 (c-Kit(V654A)) [nM] | IC50 [1] [nM] | IC50 [2] [nM] | efflux ratio at 2 h, 1 μM [3] | Structure (SMILES) |
| --- | --- | --- | --- | --- |
| 3.8 | 33 | 1.8 | < 15 | Cn1ncc(-c2ccc(CNc3cc(-c4cnc5cc(OCCCNC6COC6)ccn45)ncn3)cc2)n1 [A259, N-{[4-(2-methyl-2H-1,2,3-triazol-4-yl)phenyl]methyl}-6-(7-{3-[(oxetan-3-yl)amino]propoxy}imidazo[1,2-a]pyridin-3-yl)pyrimidin-4-amine] |
| 6 | 43 | 1.9 | 15 to 50 | Cn1cc(-c2ccc(CNc3cc(-c4cnc5cc(OCCCN[C@@H]6CCOC6)ccn45)ncn3)cc2)cn1 [A260, N-{[4-(1-methyl-1H-pyrazol-4-yl)phenyl]methyl}-6-[7-(3-{[(3R)-oxolan-3-yl]amino}propoxy)imidazo[1,2-a]pyridin-3-yl]pyrimidin-4-amine] |
| 2.1 | 54 | 1.4 | < 15 | Cc1nc(-c2ccc(CNc3cc(-c4cnc5cc(OCCN6CCC(=O)N(C)CC6)ccn45)ncn3)cc2)co1 [A261, 4-methyl-1-[2-({3-[6-({[4-(2-methyl-1,3-oxazol-4-yl)phenyl]methyl}amino)pyrimidin-4-yl]imidazo[1,2-a]pyridin-7-yl}oxy)ethyl]-1,4-diazepan-5-one] |
| 5 | 73 | 4.4 | < 15 | Cn1cc(-c2ccc(CNc3cc(-c4cnc5cc(OCCCN6CCC(C)(F)CC6)ccn45)ncn3)cc2)cn1 [A262, 6-{7-[3-(4-fluoro-4-methylpiperidin-1-yl)propoxy]imidazo[1,2-a]pyridin-3-yl}-N-{[4-(1-methyl-1H-pyrazol-4-yl)phenyl]methyl}pyrimidin-4-amine] |
| 2.3 | 66 | 4.3 | < 15 | CC1(F)CCN(CCCOc2ccn3c(-c4cc(NCc5ccc(-c6cocn6)cc5)ncn4)cnc3c2)CC1 [A263, 6-{7-[3-(4-fluoro-4-methylpiperidin-1-yl)propoxy]imidazo[1,2-a]pyridin-3-yl}-N-{[4-(1,3-oxazol-4-yl)phenyl]methyl}pyrimidin-4-amine] |
| 1.6 | 36 | 1.1 | 15 to 50 | Cc1nc(-c2ccc(CNc3cc(-c4cnc5cc(OCCN6CCn7nncc7C6)ccn45)ncn3)cc2)co1 [A264, N-{[4-(2-methyl-1,3-oxazol-4-yl)phenyl]methyl}-6-[7-(2-{4H,5H,6H,7H-[1,2,3]triazolo[1,5-a]pyrazin-5-yl}ethoxy)imidazo[1,2-a]pyridin-3-yl]pyrimidin-4-amine] |
| 6.8 | 78 | 3.3 | < 15 | FC(F)(F)Oc1ccc(CNc2cc(-c3cnc4cc(OCCN5CCn6nncc6C5)ccn34)ncn2)cc1 [A265, 6-[7-(2-{4H,5H,6H,7H-[1,2,3]triazolo[1,5-a]pyrazin-5-yl}ethoxy)imidazo[1,2-a]pyridin-3-yl]-N-{[4-(trifluoromethoxy)phenyl]methyl}pyrimidin-4-amine] |
| 7.9 | 130 | 5.1 | < 15 | Cn1cc(-c2ccc(CNc3cc(-c4cnc5cc(-n6cncn6)ccn45)ncn3)cc2)cn1 [A266, N-{[4-(1-methyl-1H-pyrazol-4-yl)phenyl]methyl}-6-[7-(1H-1,2,4-triazol-1-yl)imidazo[1,2-a]pyridin-3-yl]pyrimidin-4-amine] |
| 4.4 | 63 | 1.7 | < 15 | Cc1cn(-c2ccn3c(-c4cc(NCc5ccc(-c6cnn(C)c6)cc5)ncn4)cnc3c2)cn1 [A267, 6-[7-(4-methyl-1H-imidazol-1-yl)imidazo[1,2-a]pyridin-3-yl]-N-{[4-(1-methyl-1H-pyrazol-4-yl)phenyl]methyl}pyrimidin-4-amine] |
